Source: US10642156B2, “Resist base material, resist composition and method for forming resist pattern” (Mitsubishi Gas Chemical Company, Inc., priority 2015, dated 2020)

Columns and labels:
[1] = 10% thermal reduction temperature by thermogravimetry (TG); format: physicochemical; settings: nitrogen gas stream, 10° C./min to 500° C.
Description: (3) Thermal Reduction Temperature
“EXSTAR 6000 DSC” apparatus manufactured by SII NanoTechnology Inc. was used. About 5 mg of a sample was placed in an unsealed container made of aluminum, and the temperature was raised to 500° C. at a temperature increase rate of 10° C./min in a nitrogen gas (30 mL/min) stream. In this operation, 10% thermal reduction temperature was measured.

[2] = Test on safe solvent solubility of compound; format: physicochemical; settings: 23° C., ultrasound 30 minutes, visually observed; for Safety solvent solubility test CHN: cyclohexanone (CHN); for Safety solvent solubility test PGME: propylene glycol monomethyl ether (PGME); for Safety solvent solubility test PGMEA: propylene glycol monomethyl ether acetate (PGMEA)
Description: (1) Test on Safe Solvent Solubility of Compound
The solubility of the compound in cyclohexanone (CHN), propylene glycol monomethyl ether (PGME), and propylene glycol monomethyl ether acetate (PGMEA) was evaluated according to the following standard using the dissolution amount in each solvent. For the measurement of the dissolution amount, the compound was precisely weighed into a test tube at 23° C., and the target solvent was added thereto at a predetermined concentration. Ultrasound was applied for 30 minutes in an ultrasonic cleaning machine. Then, the state of the liquid was visually observed.
Evaluation A: 20% by mass≤dissolution amount
Evaluation B: 10% by mass≤dissolution amount<20.0% by mass
Evaluation C: Dissolution amount<10% by mass

Row | Compound | 10% thermal reduction temperature [1] [°C] | Safety solvent solubility test CHN [2] | Safety solvent solubility test PGME [2] | Safety solvent solubility test PGMEA [2]
1 | Oc1ccc(C2=CC(C(c3ccc(I)cc3)c3cc(-c4ccc(O)cc4)ccc3O)C(O)C=C2)cc1 (stereo not drawn) [BiF-I-1] | ≥ 300 | A (Evaluation A: 20% by mass≤dissolution amount) | A (Evaluation A: 20% by mass≤dissolution amount) | A (Evaluation A: 20% by mass≤dissolution amount)
2 | COc1cc(I)cc(C(c2cc(C3C=CC(O)=CC3)ccc2O)C2C=C(C3=CCC(O)C=C3)C=CC2O)c1 (stereo not drawn) [BiF-I-2] | ≥ 300 | A (Evaluation A: 20% by mass≤dissolution amount) | A (Evaluation A: 20% by mass≤dissolution amount) | A (Evaluation A: 20% by mass≤dissolution amount)
3 | Oc1ccc(-c2ccc(O)c(C(c3cccc(I)c3)c3cc(-c4ccc(O)cc4)ccc3O)c2)cc1 [BiF-I-3] | ≥ 300 | A (Evaluation A: 20% by mass≤dissolution amount) | A (Evaluation A: 20% by mass≤dissolution amount) | A (Evaluation A: 20% by mass≤dissolution amount)
